Test results as given in PubChem BioAssay AID330 (DTP/NCI, 2004).
Several values for one entry are separate records, joined by “and”; a condition that tells them apart may be missing. Equal entries are not always repeated. Toxic doses and inconclusive results are not listed. The calls were made as follows: active = survival T/C of 150% or more; inactive = T/C below 125% in these data.

Tested on: P388 leukemia ip, CD2F1 mice, survival T/C
Assay: NCI In Vivo Anticancer Drug Screen. Data for tumor model P388 Leukemia (intraperitoneal) in CD2F1 (CDF1) mice
Conditions: endpoint: median survival time, higher = longer survival
Summary of the method: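 Mice carrying the transplanted tumor received test compound or vehicle. Survival was recorded in each group, and the value is the treated-group measurement divided by that of the vehicle-treated control group.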

[1] = dose: 100.0 mg/kg/injection, schedule: Q01DX001 (ip), vehicle: saline with Tween-80
[2] = dose: 200.0 mg/kg/injection, schedule: Q01DX001 (ip), vehicle: saline with Tween-80
[3] = dose: 400.0 mg/kg/injection, schedule: Q01DX001 (ip), vehicle: saline with Tween-80
[4] = dose: 50.0 mg/kg/injection, schedule: Q01DX005 (ip), vehicle: Klucel (hydroxypropylcellulose) (HPC)
[5] = dose: 100.0 mg/kg/injection, schedule: Q01DX005 (ip), vehicle: Klucel (hydroxypropylcellulose) (HPC)
[6] = dose: 200.0 mg/kg/injection, schedule: Q01DX005 (ip), vehicle: Klucel (hydroxypropylcellulose) (HPC)
[7] = dose: 100.0 mg/kg/injection, schedule: Q01DX009 (ip), vehicle: saline with Tween-80
[8] = dose: 200.0 mg/kg/injection, schedule: Q01DX009 (ip), vehicle: saline with Tween-80
[9] = dose: 50.0 mg/kg/injection, schedule: Q01DX009 (ip), vehicle: saline with Tween-80
[10] = dose: 50.0 mg/kg/injection, schedule: Q01DX005 (ip), vehicle: saline with Tween-80
[11] = dose: 100.0 mg/kg/injection, schedule: Q01DX005 (ip), vehicle: saline with Tween-80
[12] = dose: 200.0 mg/kg/injection, schedule: Q01DX005 (ip), vehicle: saline with Tween-80
[13] = dose: 60.0 mg/kg/injection, schedule: Q01DX005 (ip), vehicle: saline with Tween-80
[14] = dose: 120.0 mg/kg/injection, schedule: Q01DX005 (ip), vehicle: saline with Tween-80
[15] = dose: 240.0 mg/kg/injection, schedule: Q01DX005 (ip), vehicle: saline with Tween-80
[16] = dose: 50.0 mg/kg/injection, schedule: Q01DX005 (ip), vehicle: saline
[17] = dose: 100.0 mg/kg/injection, schedule: Q01DX005 (ip), vehicle: saline
[18] = dose: 400.0 mg/kg/injection, schedule: Q01DX009 (ip), vehicle: saline with Tween-80

Measured: T/C

CCCCOc1cccc2c1C(=O)c1c(O)c3c(c(O)c1C2=O)C[C@@](O)(C(C)=O)C[C@@H]3OC1CC(N)C(O)C(C)O1 (stereo not given in full)
inactive: dose: 3.13 mg/kg/injection, schedule: Q04DX003 (ip), vehicle: water 117 % of control and 120 % of control | dose: 6.25 mg/kg/injection, schedule: Q04DX003 (ip), vehicle: water 113 % of control and 117 % of control | dose: 12.5 mg/kg/injection, schedule: Q04DX003 (ip), vehicle: water 115 % of control | dose: 50.0 mg/kg/injection, schedule: Q04DX003 (ip), vehicle: water 89 % of control and 90 % of control

c1ccc(N/N=C2/CCN3CCCc4cccc2c43)cc1
inactive: dose: 12.5 mg/kg/injection, schedule: Q04DX003 (ip), vehicle: DMSO 100 % of control | dose: 25.0 mg/kg/injection, schedule: Q04DX003 (ip), vehicle: DMSO 101 % of control | dose: 50.0 mg/kg/injection, schedule: Q04DX003 (ip), vehicle: DMSO 110 % of control

Cc1ccc(NC(=O)CCC(=O)NS(C)(=O)=O)cc1
inactive: [1] 94 % of control | [2] 94 % of control | [3] 95 % of control

Cc1ccc([B-]23OCC[N+]2(CNC(=O)c2ccccc2O)CCO3)cc1 (stereo not given)
inactive: [4] 103 % of control | [5] 108 % of control | [6] 103 % of control

O=C(CBr)Nc1c(Cl)cc(Br)cc1Br
inactive: dose: 6.25 mg/kg/injection, schedule: Q01DX009 (ip), vehicle: saline 113 % of control | dose: 12.5 mg/kg/injection, schedule: Q01DX009 (ip), vehicle: saline 95 % of control | dose: 25.0 mg/kg/injection, schedule: Q01DX009 (ip), vehicle: saline 98 % of control | [7] 104 % of control | [8] 113 % of control

O=C(NC(Cc1ccc(Br)cc1)C(=O)O)c1ccc(Br)cc1 (stereo not given)
inactive: [4] 104 % of control | [5] 101 % of control | [6] 104 % of control

COc1cc(OC)c(C(C)=O)c(O)c1C
inactive: dose: 12.5 mg/kg/injection, schedule: Q01DX009 (ip), vehicle: distilled water + Tween-80 94 % of control | dose: 25.0 mg/kg/injection, schedule: Q01DX009 (ip), vehicle: distilled water + Tween-80 101 % of control | dose: 50.0 mg/kg/injection, schedule: Q01DX009 (ip), vehicle: distilled water + Tween-80 98 % of control | dose: 100.0 mg/kg/injection, schedule: Q01DX009 (ip), vehicle: distilled water + Tween-80 99 % of control | dose: 200.0 mg/kg/injection, schedule: Q01DX009 (ip), vehicle: distilled water + Tween-80 109 % of control | dose: 400.0 mg/kg/injection, schedule: Q01DX009 (ip), vehicle: distilled water + Tween-80 100 % of control

O=C1CCS(=O)(=O)c2ccccc21
inactive: [9] 100 % of control

CN(CCN1C(=O)c2cccc3cc(N)cc(c23)C1=O)CCN1C(=O)c2cccc3cc(N)cc(c23)C1=O
inactive: [10] 112 % of control | [11] 106 % of control | [12] 107 % of control

COc1ccc(C(c2cc3c(cc2O)OCO3)N2CCCCC2)cc1OC (stereo not given)
inactive: [13] 107 % of control | [14] 110 % of control | [15] 120 % of control

O=[N+]([O-])c1ccc(N/N=C\C2OC3O[C@@H](C(Cl)(Cl)Cl)OC3C2O)c([N+](=O)[O-])c1 (stereo not given in full)
inactive: dose: 200.0 mg/kg/injection, schedule: Q04DX002 (ip), vehicle: saline with Tween-80 87 % of control

O=S(=O)(O)O.[W]
inactive: dose: 0.38 mg/kg/injection, schedule: Q01DX009 (ip), vehicle: saline with Tween-80 91 % of control | dose: 0.38 mg/kg/injection, schedule: Q01DX009 (ip), vehicle: saline 99 % of control | dose: 0.75 mg/kg/injection, schedule: Q01DX009 (ip), vehicle: saline 89 % of control and 96 % of control | dose: 1.5 mg/kg/injection, schedule: Q01DX009 (ip), vehicle: saline with Tween-80 100 % of control | dose: 1.5 mg/kg/injection, schedule: Q01DX009 (ip), vehicle: saline 98 % of control and 86 % of control | dose: 3.0 mg/kg/injection, schedule: Q01DX009 (ip), vehicle: saline with Tween-80 87 % of control | dose: 3.0 mg/kg/injection, schedule: Q01DX009 (ip), vehicle: saline 89 % of control and 94 % of control

Cc1cc(NC(=O)COCC(=O)O)no1
inactive: dose: 60.0 mg/kg/injection, schedule: Q01DX005 (ip), vehicle: Klucel (hydroxypropylcellulose) (HPC) 101 % of control | dose: 120.0 mg/kg/injection, schedule: Q01DX005 (ip), vehicle: Klucel (hydroxypropylcellulose) (HPC) 101 % of control | dose: 240.0 mg/kg/injection, schedule: Q01DX005 (ip), vehicle: Klucel (hydroxypropylcellulose) (HPC) 92 % of control

COC1(C)CNc2ccccc2C(=O)N1 (stereo not given)
inactive: [10] 96 % of control | [11] 98 % of control | [12] 94 % of control

COc1ccc(-c2c(C(=O)O)oc3cc(O)ccc3c2=O)cc1OC
inactive: [13] 99 % of control | [14] 97 % of control | [15] 96 % of control

CN(C)CCCOc1ccc(NC2=C(Cl)C(=O)C(Nc3ccc(OCCCN(C)C)cc3)=C(Cl)C2=O)cc1
inactive: dose: 6.25 mg/kg/injection, schedule: Q01DX005 (ip), vehicle: suspension in saline 101 % of control | dose: 12.5 mg/kg/injection, schedule: Q01DX005 (ip), vehicle: suspension in saline 101 % of control | dose: 25.0 mg/kg/injection, schedule: Q01DX005 (ip), vehicle: suspension in saline 103 % of control

CC1=CCCC2C1(C)CCC(C)C2(C)Cc1cc(O)ccc1O (stereo not given)
inactive: dose: 12.5 mg/kg/injection, schedule: Q01DX009 (ip), vehicle: saline with Tween-80 100 % of control | dose: 25.0 mg/kg/injection, schedule: Q01DX009 (ip), vehicle: saline with Tween-80 103 % of control | [9] 107 % of control | [1] 97 % of control | [7] 94 % of control | [2] 99 % of control | [3] 88 % of control

CCN(CC)CCNc1cc(OC)c(C)c2cccnc12
inactive: [16] 104 % of control | [17] 109 % of control

CC(=O)/C(=C\c1ccccc1)C(=O)CCN(C)C
inactive: dose: 25.0 mg/kg/injection, schedule: Q01DX005 (ip), vehicle: saline with Tween-80 100 % of control | [10] 103 % of control

CCCCCCCC/C=C\CCCCCCCC(=O)OC
inactive: dose: 177.0 mg/kg/injection, schedule: Q01DX009 (ip), vehicle: saline with Tween-80 109 % of control | dose: 266.0 mg/kg/injection, schedule: Q01DX009 (ip), vehicle: saline with Tween-80 116 % of control | [18] 106 % of control | dose: 600.0 mg/kg/injection, schedule: Q01DX009 (ip), vehicle: saline with Tween-80 107 % of control

Cc1cc2nc(CC(=O)c3ccc4ccccc4c3)c(=O)[nH]c2cc1C
inactive: dose: 15.0 mg/kg/injection, schedule: Q01DX005 (ip), vehicle: saline with Tween-80 91 % of control | dose: 30.0 mg/kg/injection, schedule: Q01DX005 (ip), vehicle: saline with Tween-80 91 % of control | [13] 90 % of control

COc1cc(C(C)c2cc3c(cc2OCC(=O)O)OCO3)cc(OC)c1OC (stereo not given)
inactive: dose: 50.0 mg/kg/injection, schedule: Q01DX005 (ip), vehicle: distilled water + Tween-80 102 % of control | dose: 100.0 mg/kg/injection, schedule: Q01DX005 (ip), vehicle: distilled water + Tween-80 97 % of control | dose: 200.0 mg/kg/injection, schedule: Q01DX005 (ip), vehicle: distilled water + Tween-80 93 % of control

COc1cc2c(cc1I)-c1c(cc(OC)c(OC)c1OC)CC[C@@H]2NC(C)=O
inactive: dose: 88.0 mg/kg/injection, schedule: Q01DX009 (ip), vehicle: saline with Tween-80 118 % of control | dose: 100.0 mg/kg/injection, schedule: Q01DX009 (ip), vehicle: saline sonified 95 % of control | [7] 95 % of control | dose: 100.0 mg/kg/injection, schedule: Q04DX003 (ip), vehicle: saline with Tween-80 100 % of control | [8] 100 % of control | dose: 200.0 mg/kg/injection, schedule: Q04DX003 (ip), vehicle: saline with Tween-80 100 % of control | [18] 104 % of control | dose: 400.0 mg/kg/injection, schedule: Q04DX003 (ip), vehicle: saline with Tween-80 90 % of control

CCNc1cc(N)[n+](CC)c2n[nH]c(N)c12
inactive: [16] 112 % of control | [17] 111 % of control
